# Test results as given in patent publication US20220096487A1 (priority 2019, published 2022).
# Several values for one entry are separate records, joined by “and”; a condition that tells them apart may be missing. Equal values may be shown once. Entries after “also recorded” stand apart in the source; their conditions may differ. Marks after values point to notes of the source that are not given here.
# What was measured:
# [1] = molecular target: organic anion transporter (OAT)1 (Homo sapiens, UniProt Q4U2R8); experiment: In vitro inhibition of OAT1; type: in vitro ADME
# [2] = molecular target: P-gp (Homo sapiens, UniProt P08183); experiment: In vitro inhibition of P-gp; type: in vitro ADME; settings: did not inhibit
# [3] = molecular target: UGT2B7 (Homo sapiens, UniProt P16662); experiment: In vitro inhibition of UGT2B7; type: in vitro ADME; settings: did not inhibit
# [4] = Pharmacokinetic properties of the components (Table 6); type: in vivo, human; settings: in vivo
# [5] = molecular target: organic anion transporter polypeptide (OATP)1B1 (Homo sapiens, UniProt Q9Y6L6); experiment: In vitro inhibition of OATP1B1; type: in vitro ADME; settings: did not inhibit
# [6] = system: INSTI-resistant site-directed mutant HIV-1 viruses; experiment: Susceptibility against INSTI-resistant site-directed mutant viruses; type: cell-based
# [7] = system: CYP2B6; experiment: In vitro induction of CYP2B6; type: in vitro ADME
# [8] = Population pharmacokinetic analyses; type: in vivo, human
# [9] = system: HIV-1 with integrase substitutions; experiment: Selection of dolutegravir-resistant viruses in cell culture; type: cell-based
# [10] = molecular target: CYP1A2 (Homo sapiens, UniProt P05177); experiment: In vitro inhibition of CYP1A2; type: in vitro ADME; settings: did not inhibit
# [11] = Single-dose mass balance study of [14C] dolutegravir; type: in vivo, human
# [12] = Hypersensitivity reactions in Phase 3 clinical trials of dolutegravir; type: in vivo, human; settings: subjects receiving dolutegravir in Phase 3 clinical trials
# Text: Discontinue the combination immediately if signs or symptoms of hypersensitivity reactions develop (including, but not limited to, severe rash or rash accompanied by fever, general malaise, fatigue, muscle or joint aches, blisters or peeling of the skin, oral blisters or lesions, conjunctivitis, facial edema, hepatitis, eosinophilia, angioedema, difficulty breathing). Clinical status, including liver aminotransferases, should be monitored and appropriate therapy initiated.
# [13] = Dolutegravir embryo-fetal development study in pregnant rats; type: in vivo, rat; settings: oral up to 1,000 mg/kg daily, gestation Days 6 to 17
# [14] = molecular target: OATP1B1 (Homo sapiens, UniProt Q9Y6L6); experiment: In vitro substrate assessment, OATP1B1; type: in vitro ADME
# [15] = molecular target: UGT1A3 (Homo sapiens, UniProt P35503); experiment: In vitro substrate assessment, UGT1A3; type: in vitro ADME
# [16] = Thorough QT trial in healthy subjects; type: in vivo, human
# [17] = Plasma protein binding in vitro; type: in vitro ADME; settings: human, human plasma proteins, read-out: % Bound to human plasma proteins (converted)
# [18] = Bacterial reverse mutation assay
# [19] = system: HIV-2 clinical isolates; experiment: Dolutegravir PBMC assays against HIV-2 clinical isolates; type: cell-based; settings: Human immunodeficiency virus 2, three HIV-2 clinical isolates
# [20] = Excretion into milk of lactating rats; type: in vivo; settings: female, rat, milk / maternal plasma; single oral dose of 50 mg/kg on lactation Day 10; 8 hours postdose; read-out: Milk concentration relative to maternal plasma concentration
# [21] = Dolutegravir rat pre/post-natal development study; type: in vivo; settings: relative to human exposure at the RHD
# Text: In the rat pre/post-natal development study, decreased body weight of the developing offspring was observed during lactation at a maternally toxic dose (approximately 32 times human exposure at the RHD).
# [22] = system: laboratory strains of wild-type HIV-1; experiment: Antiviral activity against laboratory strains in PBMCs and MT-4 cells; type: cell-based; settings: Human immunodeficiency virus 1, MT4
# [23] = Carcinogenicity studies in mice; settings: two-year study, doses up to 500 mg/kg, highest dose tested
# [24] = molecular target: T1, BCRP (Homo sapiens, UniProt Q9UNQ0); experiment: In vitro substrate assessment, BCRP; type: in vitro ADME
# T1 sequence (Q9UNQ0 1-655): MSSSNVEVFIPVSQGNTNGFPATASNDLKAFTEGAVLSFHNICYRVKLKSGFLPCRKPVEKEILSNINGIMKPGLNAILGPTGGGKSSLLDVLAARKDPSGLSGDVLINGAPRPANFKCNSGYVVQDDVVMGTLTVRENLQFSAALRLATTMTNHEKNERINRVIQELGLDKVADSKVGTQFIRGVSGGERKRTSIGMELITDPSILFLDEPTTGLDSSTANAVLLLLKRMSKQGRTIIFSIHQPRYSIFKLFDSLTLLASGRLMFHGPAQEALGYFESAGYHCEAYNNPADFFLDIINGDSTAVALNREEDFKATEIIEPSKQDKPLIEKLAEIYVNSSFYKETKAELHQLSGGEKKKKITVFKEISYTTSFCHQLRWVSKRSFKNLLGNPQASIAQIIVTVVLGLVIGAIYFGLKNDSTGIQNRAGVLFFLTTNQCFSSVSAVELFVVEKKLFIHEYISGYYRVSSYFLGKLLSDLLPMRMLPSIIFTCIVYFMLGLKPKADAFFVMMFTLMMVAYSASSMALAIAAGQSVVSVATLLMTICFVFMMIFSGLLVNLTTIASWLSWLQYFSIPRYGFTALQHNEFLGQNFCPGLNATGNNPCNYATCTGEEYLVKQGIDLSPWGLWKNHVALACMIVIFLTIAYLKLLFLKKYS
# [25] = molecular target: UGT1A1 (Homo sapiens, UniProt P22309); experiment: In vitro inhibition of UGT1A1; type: in vitro ADME; settings: did not inhibit
# [26] = molecular target: CYP2A6 (Homo sapiens, UniProt P11509); experiment: In vitro inhibition of CYP2A6; type: in vitro ADME; settings: did not inhibit
# Sequence of CYP2A6 (P11509 whole entry): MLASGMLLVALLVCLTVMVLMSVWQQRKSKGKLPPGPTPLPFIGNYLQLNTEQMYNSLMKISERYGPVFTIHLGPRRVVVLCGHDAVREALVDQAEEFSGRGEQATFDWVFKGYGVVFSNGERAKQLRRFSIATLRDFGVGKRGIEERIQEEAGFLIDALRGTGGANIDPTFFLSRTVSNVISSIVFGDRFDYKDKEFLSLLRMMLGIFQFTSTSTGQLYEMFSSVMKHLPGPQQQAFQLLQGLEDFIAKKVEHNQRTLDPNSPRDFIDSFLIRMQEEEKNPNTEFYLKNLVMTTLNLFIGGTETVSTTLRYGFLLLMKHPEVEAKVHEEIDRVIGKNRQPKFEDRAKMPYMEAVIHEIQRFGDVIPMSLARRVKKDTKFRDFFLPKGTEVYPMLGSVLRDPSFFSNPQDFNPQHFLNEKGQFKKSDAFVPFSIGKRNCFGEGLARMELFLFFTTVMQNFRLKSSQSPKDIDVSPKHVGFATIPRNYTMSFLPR
# Sequence of organic anion transporter (OAT)1 (Q4U2R8 whole entry): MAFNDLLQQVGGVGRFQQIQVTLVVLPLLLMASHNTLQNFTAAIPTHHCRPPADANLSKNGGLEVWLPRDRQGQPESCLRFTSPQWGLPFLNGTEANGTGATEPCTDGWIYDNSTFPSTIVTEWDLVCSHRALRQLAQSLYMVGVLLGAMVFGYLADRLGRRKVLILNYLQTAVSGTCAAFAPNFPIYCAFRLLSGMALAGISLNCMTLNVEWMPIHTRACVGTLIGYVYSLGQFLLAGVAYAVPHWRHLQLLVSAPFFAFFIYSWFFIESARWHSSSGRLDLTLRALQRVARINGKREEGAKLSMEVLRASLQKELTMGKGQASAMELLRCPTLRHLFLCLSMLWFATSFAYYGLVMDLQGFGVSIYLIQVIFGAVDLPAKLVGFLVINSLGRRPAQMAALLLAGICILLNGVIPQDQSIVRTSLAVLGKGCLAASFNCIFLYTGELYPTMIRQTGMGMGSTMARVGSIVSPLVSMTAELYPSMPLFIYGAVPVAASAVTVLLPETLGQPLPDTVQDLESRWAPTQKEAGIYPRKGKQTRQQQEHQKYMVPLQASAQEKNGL
# Sequence of UGT1A3 (P35503 29-534): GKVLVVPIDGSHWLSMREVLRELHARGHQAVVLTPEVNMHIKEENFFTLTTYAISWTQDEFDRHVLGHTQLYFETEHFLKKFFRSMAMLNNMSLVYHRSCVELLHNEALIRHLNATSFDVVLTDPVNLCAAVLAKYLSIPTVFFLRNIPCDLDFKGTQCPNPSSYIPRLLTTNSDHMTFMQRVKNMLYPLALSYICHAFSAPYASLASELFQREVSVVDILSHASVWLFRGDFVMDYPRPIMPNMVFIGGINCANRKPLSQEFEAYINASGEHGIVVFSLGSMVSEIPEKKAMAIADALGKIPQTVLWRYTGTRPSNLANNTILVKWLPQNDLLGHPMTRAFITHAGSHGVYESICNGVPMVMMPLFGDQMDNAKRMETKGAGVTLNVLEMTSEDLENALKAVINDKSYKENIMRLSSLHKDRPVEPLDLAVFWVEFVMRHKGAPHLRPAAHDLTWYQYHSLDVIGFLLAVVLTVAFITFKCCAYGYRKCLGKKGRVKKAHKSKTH
# Sequence of CYP1A2 (P05177 whole entry): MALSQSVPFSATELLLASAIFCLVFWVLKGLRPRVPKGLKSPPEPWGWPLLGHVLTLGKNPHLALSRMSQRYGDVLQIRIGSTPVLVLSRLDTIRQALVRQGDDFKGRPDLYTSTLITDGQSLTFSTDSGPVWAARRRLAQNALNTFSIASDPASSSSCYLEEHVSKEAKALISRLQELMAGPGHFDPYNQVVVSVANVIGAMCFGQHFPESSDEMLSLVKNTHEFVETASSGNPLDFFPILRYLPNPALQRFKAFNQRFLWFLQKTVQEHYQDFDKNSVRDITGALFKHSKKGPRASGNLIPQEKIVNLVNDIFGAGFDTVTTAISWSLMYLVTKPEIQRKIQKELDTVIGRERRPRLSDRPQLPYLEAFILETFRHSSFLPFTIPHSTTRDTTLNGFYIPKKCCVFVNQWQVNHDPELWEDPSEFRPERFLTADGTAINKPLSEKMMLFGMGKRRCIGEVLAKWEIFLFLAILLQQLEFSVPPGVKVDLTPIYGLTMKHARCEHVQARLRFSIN
# Sequence of P-gp (P08183 whole entry): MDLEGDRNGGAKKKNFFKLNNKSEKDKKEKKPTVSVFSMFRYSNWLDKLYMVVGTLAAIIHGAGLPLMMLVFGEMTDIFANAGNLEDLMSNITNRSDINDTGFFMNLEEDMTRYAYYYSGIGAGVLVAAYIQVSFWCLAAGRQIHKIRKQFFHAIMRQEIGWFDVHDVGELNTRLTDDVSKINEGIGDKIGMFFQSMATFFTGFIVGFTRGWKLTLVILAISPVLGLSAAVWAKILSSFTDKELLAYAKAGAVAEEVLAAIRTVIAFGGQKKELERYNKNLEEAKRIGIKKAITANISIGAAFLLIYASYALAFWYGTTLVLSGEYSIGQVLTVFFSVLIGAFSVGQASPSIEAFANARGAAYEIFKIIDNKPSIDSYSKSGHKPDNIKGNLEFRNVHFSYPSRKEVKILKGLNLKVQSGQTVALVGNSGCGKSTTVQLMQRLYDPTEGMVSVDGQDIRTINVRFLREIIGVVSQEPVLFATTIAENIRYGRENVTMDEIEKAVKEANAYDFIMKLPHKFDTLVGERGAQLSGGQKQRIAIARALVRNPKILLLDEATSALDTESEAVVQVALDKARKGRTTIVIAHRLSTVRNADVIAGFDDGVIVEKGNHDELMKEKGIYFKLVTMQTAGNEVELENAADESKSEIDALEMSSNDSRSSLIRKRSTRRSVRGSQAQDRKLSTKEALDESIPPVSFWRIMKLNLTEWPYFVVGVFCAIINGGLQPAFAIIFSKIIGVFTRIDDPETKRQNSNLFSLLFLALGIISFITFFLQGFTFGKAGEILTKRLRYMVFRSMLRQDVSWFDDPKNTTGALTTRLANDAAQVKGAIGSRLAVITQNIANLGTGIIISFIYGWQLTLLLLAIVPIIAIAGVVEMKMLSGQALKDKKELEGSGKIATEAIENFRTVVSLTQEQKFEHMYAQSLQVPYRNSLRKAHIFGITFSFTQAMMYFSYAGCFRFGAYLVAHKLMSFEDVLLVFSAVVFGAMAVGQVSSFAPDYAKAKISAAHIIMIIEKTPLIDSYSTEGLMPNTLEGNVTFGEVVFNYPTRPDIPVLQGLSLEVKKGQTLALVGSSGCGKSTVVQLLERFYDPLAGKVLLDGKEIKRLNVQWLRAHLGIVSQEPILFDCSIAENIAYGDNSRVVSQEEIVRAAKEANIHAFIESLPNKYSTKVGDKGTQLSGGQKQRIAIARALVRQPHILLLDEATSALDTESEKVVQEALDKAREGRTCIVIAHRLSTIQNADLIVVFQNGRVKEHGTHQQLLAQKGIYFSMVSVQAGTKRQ
# Sequence of UGT1A1 (P22309 26-533): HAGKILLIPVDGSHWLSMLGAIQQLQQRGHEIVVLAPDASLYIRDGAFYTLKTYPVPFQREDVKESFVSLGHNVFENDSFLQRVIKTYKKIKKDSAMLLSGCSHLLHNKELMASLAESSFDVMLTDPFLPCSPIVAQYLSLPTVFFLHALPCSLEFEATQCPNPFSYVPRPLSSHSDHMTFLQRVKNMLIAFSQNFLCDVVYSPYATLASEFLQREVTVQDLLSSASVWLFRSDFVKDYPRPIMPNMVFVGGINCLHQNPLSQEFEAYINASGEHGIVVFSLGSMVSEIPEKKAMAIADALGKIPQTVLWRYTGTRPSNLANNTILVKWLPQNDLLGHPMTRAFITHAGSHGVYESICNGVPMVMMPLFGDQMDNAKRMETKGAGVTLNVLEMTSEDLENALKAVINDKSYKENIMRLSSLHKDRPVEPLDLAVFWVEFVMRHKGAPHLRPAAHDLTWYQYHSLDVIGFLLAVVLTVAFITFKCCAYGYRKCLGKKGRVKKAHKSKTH
# Sequence of OATP1B1 (Q9Y6L6 whole entry): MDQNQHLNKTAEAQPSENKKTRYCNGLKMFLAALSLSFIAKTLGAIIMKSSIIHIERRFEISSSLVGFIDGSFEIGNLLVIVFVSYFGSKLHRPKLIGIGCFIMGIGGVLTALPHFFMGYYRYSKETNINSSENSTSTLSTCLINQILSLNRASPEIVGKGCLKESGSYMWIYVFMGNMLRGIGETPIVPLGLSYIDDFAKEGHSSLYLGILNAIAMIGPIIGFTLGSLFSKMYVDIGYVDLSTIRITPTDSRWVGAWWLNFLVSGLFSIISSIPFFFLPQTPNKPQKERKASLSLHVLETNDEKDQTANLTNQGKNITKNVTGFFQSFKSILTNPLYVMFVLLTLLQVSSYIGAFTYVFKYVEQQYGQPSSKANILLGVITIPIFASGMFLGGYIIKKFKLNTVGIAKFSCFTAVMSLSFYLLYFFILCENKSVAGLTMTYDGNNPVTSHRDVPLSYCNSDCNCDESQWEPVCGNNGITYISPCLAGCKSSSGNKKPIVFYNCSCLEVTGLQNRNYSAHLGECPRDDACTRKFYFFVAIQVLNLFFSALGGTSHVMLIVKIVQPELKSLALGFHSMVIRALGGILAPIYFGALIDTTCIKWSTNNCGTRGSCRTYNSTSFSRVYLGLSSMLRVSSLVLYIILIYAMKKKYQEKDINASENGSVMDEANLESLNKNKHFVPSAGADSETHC
# Sequence of organic anion transporter polypeptide (OATP)1B1 (Q9Y6L6 whole entry): as above
smiles,measurement,setting,value
"C[C@@H]1CCO[C@H]2Cn3cc(C(=O)NCc4ccc(F)cc4F)c(=O)c(O)c3C(=O)N12 [Dolutegravir, dolutegravir]",IC50,[1],2.12 µM
same,IC50,[2],> 50 µM
same,IC50,[3],> 50 µM
same,half-life,[4]; human,~14 h
same,Major route of elimination,[4],Metabolism
same,Metabolic pathways,[4],UGT1A1; also recorded: CYP3A (minor)
same,"Tmax, median",[4],2.5 h
same,IC50,[5],> 50 µM
same,Decrease in dolutegravir susceptibility from reference,"[6]; multiple substitutions T66K/L74M, E92Q/N155H, G140C/Q148R, G140S/Q148H, R or K, Q148R/N155H, T97A/G140S/Q148, E138/G140/Q148",> 2 fold
same,Decrease in dolutegravir susceptibility from reference,"[6]; single INSTI-resistance substitutions T66K, I151L, and S153Y",> 2 fold
same,Induction of CYP2B6,[7],did not induce
same,Effect of age on pharmacokinetics,[8]; in vivo,no clinically relevant effect
same,Effect of gender and race on pharmacokinetics,[8]; studies with the individual components,no clinically relevant effect
same,Decreased susceptibility to dolutegravir,[9]; G118R,10 fold
same,Decreased susceptibility to dolutegravir,"[9]; substitutions E92Q, S153F or Y, G193E or R263K",up to 4 fold
same,IC50,[10],> 50 µM
same,% of dose excreted as total 14C in feces,[11]; single dose,64%
same,% of dose excreted as total 14C in urine,[11]; single dose,31^b %
same,% of dose excreted as unchanged drug in feces,[11]; single dose,53%
same,% of dose excreted as unchanged drug in the urine,[11]; single-dose mass balance study of [14C] dolutegravir,<1^b %
same,"Hypersensitivity reactions, % of subjects",[12],< 1%
same,Effects on embryo-fetal development,[13],No adverse effects
same,Substrate of OATP1B1,[14],not a substrate
same,Substrate of UGT1A3,[15],substrate
same,Maximum mean QTc change (QTcF),"[16]; dolutegravir 250-mg suspension single dose, baseline and placebo adjusted",2.4 ms
same,QTc interval prolongation,[16]; over 24 hours postdose,did not prolong
same,fraction unbound,[17],~0.01
same,"Genotoxicity, bacterial reverse mutation assay",[18],not genotoxic
same,EC50,[19],0.09 to 0.61 nM
same,Kp at 8 h,[20],≤ 1.3
same,Exposure multiple of maternally toxic dose with decreased body weight of developing offspring during lactation,[21],approximately 32 times
same,EC50,[22],0.5 nM to 2.1 nM and 0.00021 µg/mL to 0.00085 µg/mL
same,AUC exposure multiple of human (50 mg once daily) with no significant increases in drug-related neoplasms,[23],approximately 20 fold
same,Substrate of BCRP,[24],substrate
same,IC50,[25],> 50 µM
same,IC50,[26],> 50 µM
